According to ChEMBL document CHEMBL4725338, “Discovery of novel histone lysine methyltransferase G9a/GLP (EHMT2/1) inhibitors: Design, synthesis, and structure-activity relationships of 2,4-diamino-6-methylpyrimidines” (Bioorg Med Chem Lett, 2020):
Converted amounts (≈) assume the structure as drawn. The source made the active and inactive calls. No cut-off for these calls is given here.

Tests used:
CYP3A4 [1] = biological target: T1, CYP3A4 (Homo sapiens, UniProt P08684); test: Inhibition of CYP3A4 (unknown origin) at 10 uM relative to control; type: ADME
T1 sequence (P08684 whole entry): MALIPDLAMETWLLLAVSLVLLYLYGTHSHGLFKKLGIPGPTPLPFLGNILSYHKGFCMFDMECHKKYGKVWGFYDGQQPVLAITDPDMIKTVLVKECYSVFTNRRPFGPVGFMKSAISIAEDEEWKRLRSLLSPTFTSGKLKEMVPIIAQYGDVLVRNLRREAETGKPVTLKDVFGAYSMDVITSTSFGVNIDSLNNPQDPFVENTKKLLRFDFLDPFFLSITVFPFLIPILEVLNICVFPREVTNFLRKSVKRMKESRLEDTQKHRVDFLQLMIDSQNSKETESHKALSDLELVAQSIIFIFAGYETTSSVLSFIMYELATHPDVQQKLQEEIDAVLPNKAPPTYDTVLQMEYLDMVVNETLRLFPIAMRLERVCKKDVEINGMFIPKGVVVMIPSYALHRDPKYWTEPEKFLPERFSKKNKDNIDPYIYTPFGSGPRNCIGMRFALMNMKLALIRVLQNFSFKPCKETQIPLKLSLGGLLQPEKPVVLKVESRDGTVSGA

[2] = system: CD34-positive (myeloid/lymphoid) cell; test: Induction of fetal globin in human CD34+ cells assessed as switching of mRAN expression from adult beta-globin to fetal type gamma globin at 0.3 to 1 uM by qRT-PCR analysis; type: functional, cell-based
hERG (KCNH2) = hERG (KCNH2) (Homo sapiens, UniProt Q12809); test: Inhibition of human ERG at 10 uM relative to control
hERG (KCNH2), sequence (Q12809 whole entry): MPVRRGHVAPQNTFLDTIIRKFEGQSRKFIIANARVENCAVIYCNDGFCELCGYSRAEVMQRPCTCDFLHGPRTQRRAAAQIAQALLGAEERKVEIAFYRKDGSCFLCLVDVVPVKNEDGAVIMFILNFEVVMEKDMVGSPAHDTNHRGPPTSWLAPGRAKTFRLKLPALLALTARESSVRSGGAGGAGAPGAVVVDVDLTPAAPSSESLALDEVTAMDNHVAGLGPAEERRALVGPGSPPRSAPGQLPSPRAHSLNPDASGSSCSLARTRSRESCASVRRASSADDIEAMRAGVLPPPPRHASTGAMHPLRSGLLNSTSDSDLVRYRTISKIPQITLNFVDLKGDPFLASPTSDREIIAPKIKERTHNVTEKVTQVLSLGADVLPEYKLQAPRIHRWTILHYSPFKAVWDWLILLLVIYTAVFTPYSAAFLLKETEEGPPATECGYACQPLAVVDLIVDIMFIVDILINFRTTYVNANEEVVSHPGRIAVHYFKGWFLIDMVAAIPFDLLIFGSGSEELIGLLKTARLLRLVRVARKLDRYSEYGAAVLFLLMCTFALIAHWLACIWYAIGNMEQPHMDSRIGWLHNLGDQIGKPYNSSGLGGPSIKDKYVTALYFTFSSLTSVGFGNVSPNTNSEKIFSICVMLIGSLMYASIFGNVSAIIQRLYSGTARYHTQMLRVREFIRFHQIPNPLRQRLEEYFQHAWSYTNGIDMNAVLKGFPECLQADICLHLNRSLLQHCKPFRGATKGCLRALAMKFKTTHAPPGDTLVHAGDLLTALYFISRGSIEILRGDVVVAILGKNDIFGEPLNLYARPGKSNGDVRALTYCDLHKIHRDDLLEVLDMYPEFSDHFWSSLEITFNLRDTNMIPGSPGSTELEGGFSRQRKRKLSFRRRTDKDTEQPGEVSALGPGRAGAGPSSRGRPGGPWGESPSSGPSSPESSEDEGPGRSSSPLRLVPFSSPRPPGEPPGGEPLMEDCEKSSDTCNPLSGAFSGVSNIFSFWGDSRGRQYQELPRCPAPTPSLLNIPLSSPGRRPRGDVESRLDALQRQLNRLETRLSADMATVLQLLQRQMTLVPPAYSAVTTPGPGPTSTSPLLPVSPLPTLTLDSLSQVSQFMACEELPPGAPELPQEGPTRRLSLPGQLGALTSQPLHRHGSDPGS

[3] = Initial plasma concentration in mouse at 1 mg/kg, iv; type: ADME, organism-based
[4] = AUC (0 to infinity) in mouse at 10 mg/kg, po; type: ADME, organism-based; design: time infinity, route oral, dose 10 mg/kg; details: in vivo
[5] = Apparent permeability in MDCK cells; type: ADME, cell-based, Canis lupus familiaris; details: dog
CYP2C19 = CYP2C19 (Homo sapiens, UniProt P33261); test: Inhibition of CYP2C19 (unknown origin) at 10 uM relative to control; type: ADME
CYP2C19, sequence (P33261 whole entry): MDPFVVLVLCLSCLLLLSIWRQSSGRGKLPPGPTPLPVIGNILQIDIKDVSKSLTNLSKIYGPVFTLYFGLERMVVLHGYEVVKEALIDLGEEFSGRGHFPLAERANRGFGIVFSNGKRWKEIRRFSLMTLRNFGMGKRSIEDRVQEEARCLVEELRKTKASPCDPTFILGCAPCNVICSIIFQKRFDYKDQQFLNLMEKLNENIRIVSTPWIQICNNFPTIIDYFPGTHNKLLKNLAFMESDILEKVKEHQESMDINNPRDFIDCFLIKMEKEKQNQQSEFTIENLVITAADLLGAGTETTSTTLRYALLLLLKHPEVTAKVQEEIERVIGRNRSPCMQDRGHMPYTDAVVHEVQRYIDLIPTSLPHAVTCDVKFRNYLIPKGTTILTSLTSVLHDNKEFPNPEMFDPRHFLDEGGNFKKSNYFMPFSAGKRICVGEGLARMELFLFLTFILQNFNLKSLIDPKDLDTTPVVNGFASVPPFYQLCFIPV

[6] = Metabolic stability in monkey liver microsomes assessed as compound remaining at 0.5 mg/mL incubated for 0.5 hrs; type: ADME, Macaca mulatta, Microsome; details: rhesus monkey, read-out: Stabilty
[7] = Intrinsic clearance in mouse at 1 mg/kg, iv; type: ADME, organism-based; details: in vivo
[8] = Tmax in mouse at 10 mg/kg, po; type: ADME, organism-based; details: in vivo
[9] = Aqueous solubility of the compound in pH 1.2 JP1 fluid; type: physicochemical
CYP2D6 = CYP2D6 (Homo sapiens, UniProt P10635); test: Inhibition of CYP2D6 (unknown origin) at 10 uM relative to control; type: ADME
CYP2D6, sequence (P10635 whole entry): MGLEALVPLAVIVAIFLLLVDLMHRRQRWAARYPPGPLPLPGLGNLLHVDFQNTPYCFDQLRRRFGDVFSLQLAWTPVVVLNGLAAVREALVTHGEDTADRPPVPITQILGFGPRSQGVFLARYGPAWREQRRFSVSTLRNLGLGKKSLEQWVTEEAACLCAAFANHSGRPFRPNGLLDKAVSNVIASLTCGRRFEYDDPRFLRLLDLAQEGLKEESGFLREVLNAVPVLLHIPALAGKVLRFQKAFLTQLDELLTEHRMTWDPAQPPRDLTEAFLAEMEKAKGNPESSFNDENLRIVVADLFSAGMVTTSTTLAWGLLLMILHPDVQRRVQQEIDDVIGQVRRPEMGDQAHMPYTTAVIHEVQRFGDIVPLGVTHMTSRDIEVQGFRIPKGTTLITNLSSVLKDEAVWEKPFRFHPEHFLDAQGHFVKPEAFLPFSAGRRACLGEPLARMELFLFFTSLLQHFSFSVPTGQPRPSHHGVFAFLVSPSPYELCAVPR

[10] = Metabolic stability in mouse liver microsomes assessed as compound remaining at 0.5 mg/mL incubated for 0.5 hrs; type: ADME, Microsome; details: read-out: Stabilty
[11] = Volume of distribution at steady state in mouse at 1 mg/kg, iv; type: ADME, organism-based; details: in vivo, read-out: Vdss
CYP3A4 [12] = biological target: T1, CYP3A4; test: Mechanism based inhibition of CYP3A4 in human liver microsome assessed as remaining percentage at 100 uM in presence of substrate ACN preincubated 30 mins followed by substrate addition relative to control; type: ADME; details: liver microsomes, probe ACN (so in the source), read-out: Activity
CYP1A2 = biological target: T2, CYP1A2 (Homo sapiens, UniProt P05177); test: Inhibition of CYP1A2 (unknown origin) at 10 uM relative to control; type: ADME
T2 sequence (P05177 whole entry): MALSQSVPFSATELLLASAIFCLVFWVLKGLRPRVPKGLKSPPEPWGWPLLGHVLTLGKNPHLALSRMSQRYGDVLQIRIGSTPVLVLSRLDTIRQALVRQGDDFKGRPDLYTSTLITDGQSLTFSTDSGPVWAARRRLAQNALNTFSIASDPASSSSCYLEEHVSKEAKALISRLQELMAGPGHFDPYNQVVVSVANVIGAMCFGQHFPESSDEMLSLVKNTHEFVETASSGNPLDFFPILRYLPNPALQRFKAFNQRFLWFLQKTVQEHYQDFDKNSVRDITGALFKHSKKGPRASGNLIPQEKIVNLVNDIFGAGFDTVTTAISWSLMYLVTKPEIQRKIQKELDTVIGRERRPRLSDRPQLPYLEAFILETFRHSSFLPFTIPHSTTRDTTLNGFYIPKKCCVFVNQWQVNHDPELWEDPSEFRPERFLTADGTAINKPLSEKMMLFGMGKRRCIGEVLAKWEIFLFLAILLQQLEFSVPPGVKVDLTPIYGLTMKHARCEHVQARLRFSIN

[13] = Aqueous solubility of the compound in pH 6.8 JP2 fluid; type: physicochemical
[14] = Cmax in mouse at 10 mg/kg, po; type: ADME, organism-based; design: route oral, dose 10 mg/kg; details: in vivo
CYP2C8 = biological target: T3, CYP2C8 (Homo sapiens, UniProt P10632); test: Inhibition of CYP2C8 (unknown origin) at 10 uM relative to control; type: ADME
T3 sequence (P10632 whole entry): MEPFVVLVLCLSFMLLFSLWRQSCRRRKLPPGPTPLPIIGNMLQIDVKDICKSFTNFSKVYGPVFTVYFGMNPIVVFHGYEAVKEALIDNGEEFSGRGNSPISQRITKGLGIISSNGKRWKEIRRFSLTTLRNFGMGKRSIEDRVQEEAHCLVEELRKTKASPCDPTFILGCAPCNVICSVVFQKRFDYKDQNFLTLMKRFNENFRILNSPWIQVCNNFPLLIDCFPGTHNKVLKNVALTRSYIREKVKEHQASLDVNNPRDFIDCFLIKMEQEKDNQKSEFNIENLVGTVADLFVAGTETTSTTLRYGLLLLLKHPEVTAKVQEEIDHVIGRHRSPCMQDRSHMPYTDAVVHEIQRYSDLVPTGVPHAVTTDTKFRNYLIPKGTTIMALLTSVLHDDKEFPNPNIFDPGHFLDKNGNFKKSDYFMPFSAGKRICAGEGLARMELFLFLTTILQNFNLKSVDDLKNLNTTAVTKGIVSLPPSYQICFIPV

[15] = Half-life in mouse at 1 mg/kg, iv; type: ADME, organism-based; details: in vivo

SMILES	inhibition at 10 µM (CYP3A4 [1]) [%]	Activity [2]	inhibition at 10 µM (hERG (KCNH2)) [%]	C0 [3] [nM]	AUC(0-inf) [4] [µM·h]	Papp [5] [×10⁻⁶ cm/s]	inhibition at 10 µM (CYP2C19) [%]	remaining at 0.5 h [6] [%]	CL [7] [mL/min/kg]	Tmax [8] [h]	solubility [9] [µg/mL]	inhibition at 10 µM (CYP2D6) [%]	remaining at 0.5 h [10] [%]	Vd [11] [L/kg]	activity at 30 min, 100 µM (CYP3A4 [12]) [%]	inhibition at 10 µM (CYP1A2) [%]	solubility [13] [µg/mL]	Cmax [14] [nM]	inhibition at 10 µM (CYP2C8) [%]	half-life [15] [min]
CNc1cc(C)nc(Nc2ccc(OC)c(OCCCN3CCCC3)c2)n1	8	Active	42	260	2.86	3.1	3	8	27.4	5.5	740 (≈ 1990 µM)	8	48	8.3	93.6	5	590 (≈ 1590 µM)	220	2	240
CNc1cc(C)nc(Nc2ccc(OC)c(C3=CCNCCC3)c2)n1	0	Active	1	400	3.15	1.4	9	24	62.9	2	680 (≈ 2000 µM)	3	34	24.6	80.5	0	640 (≈ 1890 µM)	450	0	420
